Here are results for one molecule from paper PMC6934184, “Selective DNA-PKcs inhibition extends the therapeutic index of localized radiotherapy and chemotherapy” (The Journal of Clinical Investigation, 2019).

Each structure is given as a SMILES string.

This experiment addresses T1, TXK (Homo sapiens, UniProt P42681).
T1 construct: purchased Thermo Fisher Scientific (Life Technologies) SelectScreen
The experiment is described as follows: SelectScreen Z'LYTE. Type of experiment: biochemical. The procedure, abridged: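 Percent values come from Thermo SelectScreen profiling of NU5455, combining activity and binding assays. CSF1R was run in Z'LYTE format at Km app ATP, and CAMK1 in Adapta format with ATP listed at 10.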

T1 sequence (P42681 whole entry): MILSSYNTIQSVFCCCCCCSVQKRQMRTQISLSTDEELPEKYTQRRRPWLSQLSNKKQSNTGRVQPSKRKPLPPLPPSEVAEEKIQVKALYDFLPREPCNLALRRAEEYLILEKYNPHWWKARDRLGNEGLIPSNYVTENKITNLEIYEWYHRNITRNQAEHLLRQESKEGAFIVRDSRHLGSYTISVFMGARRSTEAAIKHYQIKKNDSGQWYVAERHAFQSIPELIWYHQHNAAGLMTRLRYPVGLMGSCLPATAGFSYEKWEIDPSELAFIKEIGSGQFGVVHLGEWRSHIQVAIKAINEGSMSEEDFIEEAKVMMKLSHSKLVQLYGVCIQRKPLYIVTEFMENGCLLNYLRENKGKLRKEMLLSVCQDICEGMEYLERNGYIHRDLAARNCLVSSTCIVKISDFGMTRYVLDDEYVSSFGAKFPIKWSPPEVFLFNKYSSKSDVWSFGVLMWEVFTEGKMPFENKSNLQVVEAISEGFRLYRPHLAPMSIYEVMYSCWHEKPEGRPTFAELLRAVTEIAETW

For the molecule `CN(C(=O)CN1CCOCC1)c1ccc2sc3c(-c4cccc5c(=O)cc(N6CC7CCC(C6)O7)oc45)cccc3c2c1` [NU5455], the inhibition (usually the relative decrease from the control value, in per cent) at 1 µM is -2.9%.
